In patent publication US8178506B2, “Oligomeric compounds and compositions for use in modulation of small non-coding RNAs” (Regulus Therapeutics Inc., priority 2003, dated 2012):
In the oligonucleotide strings, read from the 5' end, every base follows the letter of its sugar. An asterisk marks phosphorothioate; unmarked linkages are phosphodiester. Other units and linkages are bracketed, terminal groups are in braces. A string of capitals states the bases alone. e = 2'-O-(2-methoxyethyl) (MOE); [5mC] = 5-methylcytosine; d = 2'-deoxy (DNA)

Test system: T47D cells
Assay: Caspase-3 activity assay (apoptosis) in T47D cells
Settings: T47D cells, 48 hours; for Fold Increase over UTC (caspase-3 activity, apoptosis): 200 nM oligomeric compound; for Fold Increase over UTC (caspase activity): 200 nM, relative to untreated control

328408 (antisense eT*eA*eG*eA*e[5mC]*dA*dA*dA*dA*dA*d[5mC]*dA*dG*dA*d[5mC]*eT*e[5mC]*eT*eG*eA) [compound 328408]
Fold Increase over UTC (caspase-3 activity, apoptosis) (experiment of Table 10): 0.9 fold

328409 (antisense eG*e[5mC]*eT*eA*eG*dT*dG*dA*d[5mC]*dA*dG*dG*dT*dG*d[5mC]*eA*eG*eA*e[5mC]*eA) [compound 328409]
Fold Increase over UTC (caspase-3 activity, apoptosis) (experiment of Table 10): 0.7 fold

328410 (antisense eG*eG*eG*e[5mC]*e[5mC]*dT*dA*dT*d[5mC]*d[5mC]*dA*dA*dA*dG*dT*eG*eA*e[5mC]*eA*eG) [compound 328410]
Fold Increase over UTC (caspase-3 activity, apoptosis) (experiment of Table 11): 1.5 fold

328411 (antisense eT*eA*e[5mC]*e[5mC]*eT*d[5mC]*dT*dG*d[5mC]*dA*dG*dT*dA*dT*dT*e[5mC]*eT*eA*e[5mC]*eA) [compound 328411]
Fold Increase over UTC (caspase-3 activity, apoptosis) (experiment of Table 11): 0.8 fold

328412 (antisense eT*eT*eT*eA*e[5mC]*dT*d[5mC]*dA*dT*dA*d[5mC]*d[5mC]*dT*d[5mC]*dG*e[5mC]*eA*eA*e[5mC]*e[5mC]) [compound 328412]
Fold Increase over UTC (caspase-3 activity, apoptosis) (experiment of Table 12): 1.2 fold

328413 (antisense eA*eA*eT*eT*eG*dT*dA*dT*dG*dA*d[5mC]*dA*dT*dT*dA*eA*eA*eT*e[5mC]*eA) [compound 328413]
Fold Increase over UTC (caspase-3 activity, apoptosis) (experiment of Table 11): 0.8 fold

328414 (antisense e[5mC]*eT*eT*e[5mC]*eA*dA*dG*dT*dG*d[5mC]*dA*dG*d[5mC]*d[5mC]*dG*eT*eA*eG*eG*e[5mC]) [compound 328414]
Fold Increase over UTC (caspase-3 activity, apoptosis) (experiment of Table 12): 0.9 fold

328416 (antisense eA*e[5mC]*eA*eT*eT*dG*d[5mC]*dT*dA*dT*d[5mC]*dA*dT*dA*dA*eG*eA*eG*e[5mC]*eT) [compound 328416]
Fold Increase over UTC (caspase activity): 0.9

328418 (antisense eA*eG*eT*eG*eT*d[5mC]*dT*d[5mC]*dA*dT*d[5mC]*dG*d[5mC]*dA*dA*eA*e[5mC]*eT*eT*eA) [compound 328418]
Fold Increase over UTC (caspase-3 activity, apoptosis) (experiment of Table 12): 1.0 fold

328420 (antisense eG*e[5mC]*eT*eG*eA*dT*dT*dA*d[5mC]*dG*dA*dA*dA*dG*dA*e[5mC]*eA*eG*eG*eA) [compound 328420]
Fold Increase over UTC (caspase activity): 1.0

328422 (antisense eG*eA*eG*eG*eA*dT*dG*dT*d[5mC]*dT*dG*dT*dG*dA*dA*eT*eA*eG*e[5mC]*e[5mC]) [compound 328422]
Fold Increase over UTC (caspase-3 activity, apoptosis) (experiment of Table 10): 1.0 fold

328425 (antisense eG*eA*e[5mC]*e[5mC]*eT*dG*d[5mC]*dT*dA*d[5mC]*dT*d[5mC]*dA*d[5mC]*dT*e[5mC]*eT*e[5mC]*eG*eT) [compound 328425]
Fold Increase over UTC (caspase-3 activity, apoptosis) (experiment of Table 10): 0.8 fold

328426 (antisense eG*eG*eT*eT*eG*dG*d[5mC]*d[5mC]*dG*d[5mC]*dA*dG*dA*d[5mC]*dT*e[5mC]*eG*eT*eA*e[5mC]) [compound 328426]
Fold Increase over UTC (caspase-3 activity, apoptosis) (experiment of Table 11): 1.3 fold

328427 (antisense eG*eA*eT*eG*eT*d[5mC]*dA*d[5mC]*dT*dG*dA*dG*dG*dA*dA*eA*eT*e[5mC]*eA*e[5mC]) [compound 328427]
Fold Increase over UTC (caspase-3 activity, apoptosis) (experiment of Table 11): 0.8 fold

328430 (antisense e[5mC]*e[5mC]*eG*eG*e[5mC]*dT*dA*dT*dT*dG*dA*dG*dT*dT*dA*eT*eG*eT*eA*e[5mC]) [compound 328430]
Fold Increase over UTC (caspase-3 activity, apoptosis) (experiment of Table 12): 1.3 fold

328431 (antisense eA*e[5mC]*e[5mC]*eT*e[5mC]*dT*d[5mC]*dA*dG*dG*dA*dA*dG*dA*d[5mC]*eG*eG*eA*e[5mC]*eT) [compound 328431]
Fold Increase over UTC (caspase-3 activity, apoptosis) (experiment of Table 10): 0.9 fold

328432 (antisense eG*eA*eG*e[5mC]*eA*dT*dG*d[5mC]*dA*dA*d[5mC]*dA*d[5mC]*dT*d[5mC]*eT*eG*eT*eG*e[5mC]) [compound 328432]
Fold Increase over UTC (caspase-3 activity, apoptosis) (experiment of Table 12): 0.6 fold

328433 (antisense e[5mC]*e[5mC]*eT*e[5mC]*e[5mC]*dT*dT*dG*dT*dG*dG*dG*d[5mC]*dA*dA*eA*eA*eT*e[5mC]*e[5mC]) [compound 328433]
Fold Increase over UTC (caspase activity): 1.0

328435 (antisense eT*e[5mC]*eT*eA*eA*dG*dG*dG*dG*dT*d[5mC]*dA*d[5mC]*dA*dG*eA*eA*eG*eG*eT) [compound 328435]
Fold Increase over UTC (caspase-3 activity, apoptosis) (experiment of Table 11): 1.3 fold

328637 (eG*eG*eT*eT*e[5mC]*d[5mC]*dT*dA*dA*dT*dT*dA*dA*dA*d[5mC]*eA*eA*e[5mC]*e[5mC]*e[5mC]; antisense) [compound 328637]
Fold Increase over UTC (caspase-3 activity, apoptosis) (experiment of Table 11): 1.0 fold

328638 (e[5mC]*e[5mC]*eG*eA*eG*dG*dG*dT*d[5mC]*dT*dA*dA*d[5mC]*d[5mC]*d[5mC]*eA*eG*e[5mC]*e[5mC]*e[5mC]; antisense) [compound 328638]
Fold Increase over UTC (caspase-3 activity, apoptosis) (experiment of Table 11): 0.8 fold

328639 (eG*eA*e[5mC]*eT*eA*d[5mC]*dT*dG*dT*dT*dG*dA*dG*dA*dG*eG*eA*eA*e[5mC]*eA; antisense) [compound 328639]
Fold Increase over UTC (caspase-3 activity, apoptosis) (experiment of Table 11): 0.8 fold

328640 (eT*e[5mC]*eT*e[5mC]*e[5mC]*dT*dT*dG*dG*dG*dT*dG*dT*d[5mC]*d[5mC]*eT*e[5mC]*e[5mC]*eT*e[5mC]; antisense) [compound 328640]
Fold Increase over UTC (caspase-3 activity, apoptosis) (experiment of Table 12): 0.9 fold

328641 (eT*eG*e[5mC]*eT*eG*dA*d[5mC]*dT*dG*d[5mC]*dT*d[5mC]*dG*d[5mC]*d[5mC]*e[5mC]*eT*eT*eG*e[5mC]; antisense) [compound 328641]
Fold Increase over UTC (caspase-3 activity, apoptosis) (experiment of Table 12): 1.1 fold

328642 (eA*e[5mC]*eT*e[5mC]*e[5mC]*d[5mC]*dA*dG*dG*dG*dT*dG*dT*dA*dA*e[5mC]*eT*e[5mC]*eT*eA; antisense) [compound 328642]
Fold Increase over UTC (caspase-3 activity, apoptosis) (experiment of Table 12): 1.0 fold

328643 (e[5mC]*eA*eT*eG*eA*dA*dG*dA*dA*dA*dG*dA*d[5mC]*dT*dG*eT*eA*eG*e[5mC]*e[5mC]; antisense) [compound 328643]
Fold Increase over UTC (caspase activity): 0.9

328645 (eT*eG*e[5mC]*eT*e[5mC]*dA*dG*d[5mC]*d[5mC]*dA*dG*d[5mC]*d[5mC]*d[5mC]*d[5mC]*eA*eT*eT*e[5mC]*eT) [compound 328645]
Fold Increase over UTC (caspase-3 activity, apoptosis) (experiment of Table 11): 2.2 fold

328646 (eG*e[5mC]*eT*eT*eT*dT*dA*dG*dA*dA*d[5mC]*d[5mC]*dA*d[5mC]*dT*eG*e[5mC]*e[5mC]*eT*e[5mC]; antisense) [compound 328646]
Fold Increase over UTC (caspase-3 activity, apoptosis) (experiment of Table 10): 1.1 fold

328648 (eA*e[5mC]*eT*eG*eA*dT*dT*d[5mC]*dA*dA*dG*dA*dG*d[5mC]*dT*eT*eT*eG*eT*eA; antisense) [compound 328648]
Fold Increase over UTC (caspase activity): 1.1

328650 (eA*eA*eT*e[5mC]*e[5mC]*dA*dT*dT*dG*dA*dA*dG*dA*dG*dG*e[5mC]*eG*eA*eT*eT; antisense) [compound 328650]
Fold Increase over UTC (caspase-3 activity, apoptosis) (experiment of Table 12): 0.8 fold

328652 (eG*eG*e[5mC]*e[5mC]*eT*dA*dA*dT*dA*dT*d[5mC]*d[5mC]*d[5mC]*dT*dA*e[5mC]*e[5mC]*e[5mC]*e[5mC]*eA; antisense) [compound 328652]
Fold Increase over UTC (caspase-3 activity, apoptosis) (experiment of Table 10): 1.2 fold

328653 (eG*eT*eG*eT*eT*d[5mC]*dA*dG*dA*dA*dA*d[5mC]*d[5mC]*d[5mC]*dA*eG*eG*e[5mC]*e[5mC]*e[5mC]; antisense) [compound 328653]
Fold Increase over UTC (caspase-3 activity, apoptosis) (experiment of Table 11): 1.1 fold

328654 (eT*e[5mC]*e[5mC]*eA*eG*dG*dA*dT*dG*d[5mC]*dA*dA*dA*dA*dG*e[5mC]*eA*e[5mC]*eG*eA; antisense) [compound 328654]
Fold Increase over UTC (caspase-3 activity, apoptosis) (experiment of Table 11): 1.0 fold

328655 (eT*eA*e[5mC]*eA*eA*d[5mC]*dG*dG*d[5mC]*dA*dT*dT*dG*dT*d[5mC]*e[5mC]*eT*eG*eA*eA; antisense) [compound 328655]
Fold Increase over UTC (caspase-3 activity, apoptosis) (experiment of Table 11): 0.7 fold

328656 (eT*eT*eT*e[5mC]*eA*dG*dG*d[5mC]*dT*d[5mC]*dA*d[5mC]*d[5mC]*dT*d[5mC]*e[5mC]*e[5mC]*e[5mC]*eA*eG; antisense) [compound 328656]
Fold Increase over UTC (caspase activity): 1.1

328657 (eA*eA*eA*eA*eA*dT*dA*dA*dT*d[5mC]*dT*d[5mC]*dT*dG*d[5mC]*eA*e[5mC]*eA*eG*eG; antisense) [compound 328657]
Fold Increase over UTC (caspase-3 activity, apoptosis) (experiment of Table 10): 0.8 fold

328658 (eA*eG*eA*eA*eT*dG*dA*dG*dT*dT*dG*dA*d[5mC]*dA*dT*eA*e[5mC]*e[5mC]*eA*eA; antisense) [compound 328658]
Fold Increase over UTC (caspase-3 activity, apoptosis) (experiment of Table 12): 1.2 fold

328672 (eA*eA*eG*eG*e[5mC]*dT*dT*dT*dT*dT*dG*d[5mC]*dT*d[5mC]*dA*eA*eG*eG*eG*e[5mC]; antisense) [compound 328672]
Fold Increase over UTC (caspase-3 activity, apoptosis) (experiment of Table 10): 0.9 fold

328689 (eT*eA*e[5mC]*eA*eA*dT*dT*dT*dG*dG*dG*dA*dG*dT*d[5mC]*e[5mC]*eT*eG*eA*eA; antisense) [compound 328689]
Fold Increase over UTC (caspase-3 activity, apoptosis) (experiment of Table 11): 0.8 fold

328690 (eG*e[5mC]*e[5mC]*eT*e[5mC]*d[5mC]*dT*dT*d[5mC]*dA*dT*dA*dT*dA*dT*eT*e[5mC]*eT*e[5mC]*eA; antisense) [compound 328690]
Fold Increase over UTC (caspase-3 activity, apoptosis) (experiment of Table 12): 0.8 fold

328692 (eT*eT*eG*eT*eA*dT*dG*dG*dA*d[5mC]*dA*dT*dT*dT*dA*eA*eA*eT*e[5mC]*eA; antisense) [compound 328692]
Fold Increase over UTC (caspase activity): 1.2

328693 (eT*eT*eT*eG*eA*dT*dT*dT*dT*dA*dA*dT*dT*d[5mC]*d[5mC]*eA*eA*eA*e[5mC]*eT; antisense) [compound 328693]
Fold Increase over UTC (caspase-3 activity, apoptosis) (experiment of Table 12): 1.0 fold

328694 (e[5mC]*eA*eA*eA*e[5mC]*dG*dG*dT*dA*dA*dG*dA*dT*dT*dT*eG*e[5mC]*eA*eG*eA; antisense) [compound 328694]
Fold Increase over UTC (caspase-3 activity, apoptosis) (experiment of Table 10): 0.8 fold

328695 (eG*eG*eA*eT*eT*dT*dA*dA*dA*d[5mC]*dG*dG*dT*dA*dA*eA*e[5mC]*eA*eT*e[5mC]; antisense) [compound 328695]
Fold Increase over UTC (caspase-3 activity, apoptosis) (experiment of Table 11): 0.8 fold
